In assay [1] the test system is DR1. The class given is binding, human.
The subject of assay [2] is DR1. Particulars: DR1 and HA306–318 peptide; cited from earlier work.

On to DNP-PKYVKQNTLKLAT [HA306–318], for which, in the assay on DR1 [1], the “SDS stability of DR1 complex” value is “migrated as an SDS-stable heterodimer”. Further, in the assay on DR1 [2], the IC50 (in general, the concentration that inhibits the measured activity by half) was about 34 nM.

Source of the values: publication PMC7747769 (AIChE journal. American Institute of Chemical Engineers, 2019).
